Source: US20220401458A1 (Glia, LLC, priority 2019, published 2022)

Legend:
[1] = Case study Patient: blood testosterone levels during topical testosterone gel to forehead; format: in vivo, human; details: for concentration at 2 months / concentration at 10 months: human, blood, topical, 0.14 mg
Experimental: (§1) In February 2019, symptoms continued and progressed. Patient was prescribed carbidopa/levodopa 25 mg/100 mg TID.
Patient was maintained at these levels.

[2] = Serum total testosterone levels by competitive ELISA after twice daily topical administration to rat forehead; format: in vivo, male Sprague-Dawley rats; details: about 0.2% testosterone gel on shaved forehead twice daily for 14 days; serum 30 min after final application; one-way t-test p 0.08 (FIG. 1)
Experimental: (§2) Hormone Assessment: Blood was collected, stored at 4° C. overnight and spun down to collect serum. Serum was analyzed for total testosterone levels (T) and luteinizing hormone (LH) levels by competitive ELISA using commercially available kits (Enzo Life Sciences). […] All samples were run in duplicate. For assessing LH, serum was diluted 1:2 and, due to high variance, samples were run in quadruplet. Obvious outlying values were omitted and data were averaged for the final analysis.

luteinizing hormone (LH) = experiment: Serum luteinizing hormone levels by competitive ELISA after topical administration to rat forehead; format: in vivo, male Sprague-Dawley rats; details: about 0.2% testosterone gel on forehead twice daily for 14 days; not statistically significant
Experimental: as §2

Parkinson's disease = experiment: Case study Patient: Parkinson's disease symptoms during topical testosterone gel to forehead; format: in vivo, human
Excerpt: They were diagnosed with Parkinson's in May 2016, confirmed October 2016 and April 2017 by independent DAT scans. Symptoms were bradykinesia of the legs, rigidity/stiffness, postural instability, specifically trouble with balance and falling as well as trouble with moving and walking, with peripheral neuropathy on both feet. Patient experienced no particular tremors. They also experienced chronic and increasing fatigue and loss of energy, as well as chronic head colds that would last about one week at a time every 6 weeks.
as §1

[3] = system: corneal mechanical thresholds; experiment: Corneal mechanical threshold in rat (surrogate for effect on dry eye); format: in vivo; details: p<0.01 (FIG. 5)
Experimental: In the same animal model as used in Example 1, the corneal mechanical thresholds were determined as a surrogate for effect on dry eye.

## C[C@]12CC[C@H]3[C@@H](CCC4=CC(=O)CC[C@@]43C)[C@@H]1CC[C@@H]2O [testosterone, 17β-hydroxyandrost-4-en-3-one]
[1]; 0.2% w/w gel once daily to forehead, 10 months
  bioavailable testosterone: 2.0 ng/dL
[1]; Free testosterone, 0.2% w/w gel once daily to forehead
  concentration at 2 months: 0.08 pg/mL
[1]; Free testosterone, 0.2% w/w gel once daily to forehead, 10 months
  concentration at 10 months: 1 pg/mL
[1]; Total testosterone, 0.14 mg in 0.07 g gel (0.2% w/w) once daily to forehead
  concentration at 2 months: 140 pg/mL
[1]; Total testosterone, 0.2% w/w gel once daily to forehead, 10 months
  concentration at 10 months: 210 pg/mL
[2]
  increase in testosterone levels in the treated rats compared to controls: 42%
Luteinizing hormone (LH)
  increase in serum luteinizing hormone levels: 9%
Parkinson's disease; 20-month period on gel, reported by physical trainer
  increase of repetitions in exercises: about 25%
Parkinson's disease; April 2020
  cognitive decline: no cognitive decline
  sex drive compared to before start of testosterone treatment: increased sex drive
  strength in knees and rest of body: increased strength
Parkinson's disease; after starting the testosterone gel 0.14 mg once daily to forehead
  energy / ability to exercise: more energetic and was able to exercise
Parkinson's disease; neurologist's conclusion June 2020, comparison with peer group
  progression of Parkinson's disease: had not progressed
[3]; 60 minutes after administration to shaved head
  corneal mechanical threshold pressure compared with control: significantly higher
[3]; 120 minutes after administration to shaved head
  corneal mechanical threshold pressure compared with control: significantly higher
